Columns and labels:
[1] = tested on: human breast cancer (MDA-MB-231); assay: Example 6: FK330 with paclitaxel in MDA-MB-231 tumor-bearing mice; format: in vivo, nude mice; settings: FK330 100 mg/kg bid p.o. + paclitaxel 10 mg/kg/day i.v. (4 days each cycle), P<0.01
Description: The dose of FK330 is expressed in terms of the weight of a simple substance (non-hydrate). Paclitaxel was purchased from LC Laboratories, Inc. (Woburn, Mass., USA), and was used as paclitaxel.
FK330 was suspended (20 mg/mL) in a 0.5% aqueous methyl cellulose solution (0.5% MC), and was orally administered. Paclitaxel was prepared into a stock solution at 10 mg/mL with an ethanol/cremophor solution (mixed at 1:1), and then the stock solution was diluted to 1 mg/mL with physiological saline for injection (Otsuka Pharmaceutical Group) immediately before administration and was intravenously administered through the tail vein.
Human breast cancer-derived MDA-MB-231 (HTB-26) was obtained from American Type Culture Collection (VA, USA). […]
The body weight and the tumor diameter, determined by using a digital caliper, were measured twice a week. The tumor volume was calculated from the calculation formula for ellipsoid volume of (major axis×[minor axis]^2×0.5).
The results are expressed as the mean value (Mean)±standard error (SEM). […] Using the actual measured values of the tumor volume at each measurement time points, an unpaired statistical test (Student's t-test) of the difference between two groups was carried out between a single administration group and a combined use group. […]

[2] = target: T1, purified pig brain-derived tubulin (Sus scrofa, UniProt P02550+P02554); assay: Example 7: fluorescence-based assay of tubulin polymerization reaction; format: biochemical; settings: paclitaxel final concentration 3 μmmol/L; 60 minutes after initiation; P<0.05
T1 construct: purified pig brain-derived tubulin (final concentration: 2 mg/mL); purchased Cytoskeleton, Inc. (Denver, Colo., USA); host or cells: pig brain (tissue-purified)
Description: S-nitroso-N-acetyl-D,L-penicillamine (SNAP), which is a NO donor, was purchased from Cayman Chemical Co. (Ann Arbor, Mich., USA) and used. A tubulin polymerization analysis kit was purchased from Cytoskeleton, Inc. (Denver, Colo., USA) and used. For paclitaxel, a paclitaxel included in the analysis kit was used as paclitaxel. Docetaxel was purchased from Sigma-Aldrich Co. (St. Louis, Mo., USA) and was used as docetaxel.
A fluorescence-based assay of tubulin polymerization reaction was carried out according to the manufacturer's instruction of the kit. That is, purified pig brain-derived tubulin (final concentration: 2 mg/mL) and SNAP (final concentration: 200 or 500 μmol/L) were incubated at room temperature for 15 minutes or longer in the buffer solution included in the kit. Subsequently, paclitaxel (final concentration: 3 μmmol/L) or docetaxel (final concentration: 1 μmol/L), and […] (final concentration: 1 mmol/L) were added to this buffer mixture, and then was incubated for 60 minutes at 37° C. During this incubation, the fluorescence intensity (measurement wavelength: excitation 350 nm/fluorescence 435 nm) was measured every one minute by using a microplate reader (Spectramax, Molecular Devices, LLC, Sunnyvale, Calif., USA). The value of fluorescence intensity was expressed as a percentage relative to the SNAP and taxane-untreated group by using the value obtained 60 minutes after the initiation of the reaction, which corresponded to the equilibrium steady-state phase, and the average value for three experiments was taken as the value.
The results are expressed as the mean value (Mean)±standard error (SEM) of five independent experiments. A comparison between a paclitaxel- or docetaxel-treated group and an untreated group was carried out by an unpaired statistical test (Student's t-test) of the difference between two groups. A comparison between a SNAP-untreated group (control group) and SNAP-treated groups (200 μmol/L and 500 μmol/L) in the presence or absence of the taxane-family drugs was carried out by Dunnett's multiple comparison test. A difference value of less than 5% was considered to be statistically significant. For the data processing, Graphpad Prism version 5.03 was used.

T1 sequence (P02554 whole entry): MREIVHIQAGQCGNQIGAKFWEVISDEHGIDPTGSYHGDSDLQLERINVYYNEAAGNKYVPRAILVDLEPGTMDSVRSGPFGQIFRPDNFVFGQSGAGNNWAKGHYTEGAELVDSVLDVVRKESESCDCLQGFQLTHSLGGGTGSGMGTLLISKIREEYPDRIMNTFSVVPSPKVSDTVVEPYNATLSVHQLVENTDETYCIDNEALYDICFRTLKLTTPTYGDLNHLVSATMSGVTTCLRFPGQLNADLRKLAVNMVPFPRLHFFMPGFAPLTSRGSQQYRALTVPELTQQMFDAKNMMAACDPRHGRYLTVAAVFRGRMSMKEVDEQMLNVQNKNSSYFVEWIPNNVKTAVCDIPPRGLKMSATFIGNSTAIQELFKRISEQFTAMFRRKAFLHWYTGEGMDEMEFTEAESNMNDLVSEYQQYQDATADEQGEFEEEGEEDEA
T1 sequence (P02550 whole entry): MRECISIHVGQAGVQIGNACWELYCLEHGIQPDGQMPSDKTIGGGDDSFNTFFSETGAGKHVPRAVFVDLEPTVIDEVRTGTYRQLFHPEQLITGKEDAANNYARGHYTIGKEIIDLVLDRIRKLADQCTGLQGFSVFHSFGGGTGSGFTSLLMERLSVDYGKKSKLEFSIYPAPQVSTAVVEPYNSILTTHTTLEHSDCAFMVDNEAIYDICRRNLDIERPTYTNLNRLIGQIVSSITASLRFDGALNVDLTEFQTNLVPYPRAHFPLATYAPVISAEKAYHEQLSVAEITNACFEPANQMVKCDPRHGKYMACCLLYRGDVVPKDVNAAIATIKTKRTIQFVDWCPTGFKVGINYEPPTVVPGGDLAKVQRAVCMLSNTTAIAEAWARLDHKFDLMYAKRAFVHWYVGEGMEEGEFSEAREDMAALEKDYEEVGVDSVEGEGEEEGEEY

Structure (SMILES)	tumor volume reduction ratio compared with the paclitaxel-only group ([1]; Day 28) [%]	tumor volume reduction ratio compared with the paclitaxel-only group ([1]; Day 66) [%]	tubulin polymerization (fluorescence intensity) as compared with the taxane-untreated group [2] [%]
O=C(/C=C/c1ccc(Cl)cc1)N[C@@H](Cc1ccccn1)C(=O)NCC(=O)N1CCC(Oc2cc(C(F)(F)F)ncn2)CC1 [FK330, N^2-[(2E)-3-(4-chlorophenyl)-2-propenoyl]-N-[2-oxo-2-(4-{[6-(trifluoromethyl)pyrimidin-4-yl]oxy}piperidin-1-yl)ethyl]-3-pyridin-2-yl-L-alaninamide]	59.6	82.8	–
CC(=O)O[C@H]1C(=O)[C@@]2(C)[C@H]([C@H](OC(=O)c3ccccc3)[C@]3(O)C[C@H](OC(=O)[C@H](O)[C@@H](NC(=O)c4ccccc4)c4ccccc4)C(C)=C1C3(C)C)[C@]1(OC(C)=O)CO[C@@H]1C[C@@H]2O [paclitaxel, reference compound]	–	–	152.7

— patent publication US20140066385A1, “METHOD FOR TREATING CANCER BY COMBINED USE OF DRUGS” (Astellas Pharma Inc., priority 2011, published 2014)
